Results published in EP2857388A1, “Azoles containing sulfone” (Grünenthal GmbH, priority 2013, dated 2015).

biological target: T1, human B1R (Homo sapiens, UniProt P46663); assay: Functional assay at bradykinin receptor 1 (B1R): Ca2+ fluorescence (Fluo-4) in FLIPR/Novostar, antagonist mode; type: cell-based; conditions: test substance 10 µM; CHO K1 cells stably transfected with human B1R gene (hB1R-Zellen); agonist Lys-Des-Arg9-Bradykinin at EC80; % inhibition relative to maximal achievable inhibition; read-out: % Inhibierung (human B1R) bei 10 µM
T1 construct: expressed in transfected cells; host or cells: CHO K1 cells (Chinese Hamster Ovary), stably transfected
T1 sequence (P46663 1-353): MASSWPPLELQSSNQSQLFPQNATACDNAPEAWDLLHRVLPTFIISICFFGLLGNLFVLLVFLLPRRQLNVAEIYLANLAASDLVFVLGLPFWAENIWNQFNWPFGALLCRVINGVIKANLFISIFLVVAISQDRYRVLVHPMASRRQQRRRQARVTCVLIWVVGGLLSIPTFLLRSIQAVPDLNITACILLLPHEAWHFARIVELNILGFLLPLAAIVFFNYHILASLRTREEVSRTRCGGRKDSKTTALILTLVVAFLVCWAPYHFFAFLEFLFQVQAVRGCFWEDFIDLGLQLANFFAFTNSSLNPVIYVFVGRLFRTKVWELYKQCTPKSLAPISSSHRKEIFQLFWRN
Protocol: Die agonistische bzw. antagonistische Wirkung von Substanzen kann am Bradykinin Rezeptor 1 (B1R) der Spezies Mensch und Ratte mit ektopisch exprimierenden Zelllinien (CHO K1 Zellen) und mit Hilfe eines Ca^2+-sensitiven Farbstoffs (Fluo-4) im Fluorescent Imaging Plate Reader (FLIPR) quantifiziert werden. Die Angabe in % Aktivierung wird bezogen auf das Ca^2+-Signal nach Zugabe von Lys-Des-Arg^9-Bradykinin ([…]), bzw. Des-Arg^9-Bradykinin (100 nM). Antagonisten führen zu einer Unterdrückung des Ca^2+-Einstroms nach der Zugabe des Agonisten. Angegeben werden % Inhibition im Vergleich zu der maximal erreichbaren Inhibition.
Die agonistische bzw. antagonistische Wirkung von Substanzen kann am Bradykinin Rezeptor 1 (B1R) der Spezies Mensch und Ratte mit folgendem Assay bestimmt werden. Gemäß diesem Assay wird der intrazelluläre Ca^2+-Anstieg nach Gabe eines B1 R Agonisten mit Hilfe eines Ca^2+-sensitiven Farbstoffs (Typ Fluo-4, Molecular Probes Europe BV, Leiden NL) im Fluorescent Imaging Plate Reader (FLIPR, Molecular Devices, Sunnyvale, USA) und/oder im Novostar (BMG Labtech GmbH, Offenburg, DE) quantifiziert.
Es werden Chinese Hamster Ovary Zellen (CHO K1 Zellen) verwendet, die stabil mit dem humanen B1 R-Gen (hB1R-Zellen) bzw. dem B1 R-Gen der Ratte (rB1R-Zellen) transfiziert sind. Für funktionelle Untersuchungen werden diese Zellen auf schwarze 96-Loch-Platten mit klarem Boden (BD Biosciences, Heidelberg, DE oder Greiner, Frickenhausen, DE) in einer Dichte von 20.000 - 35.000 Zellen/Loch ausplattiert. Über Nacht werden die Zellen bei 37°C und 5 % CO2 in Kulturmedium (hB1 R-Zellen: Nutrient Mixture Ham's F12, Gibco Invitrogen GmbH, Karlsruhe, Deutschland oder DMEM, Sigma-Aldrich, Taufkirchen, Deutschland; rB1R-Zellen: D-MEM/F12, Gibco Invitrogen GmbH, Karlsruhe, DE) mit 10 Vol-% FBS (Fetal bovine serum, Gibco Invitrogen GmbH, Karlsruhe, DE oder PAN Biotech GmbH, Aidenbach, DE) belassen. Am folgenden Tag werden die Zellen mit 2,13 µM Fluo-4 (Molecular Probes Europe BV, Leiden, NL) in HBSS-Puffer (Hank's buffered saline solution, Gibco Invitrogen GmbH, Karlsruhe, DE) mit 2,5 mM Probenecid (Sigma-Aldrich, Taufkirchen, DE) und 10 mM HEPES (Sigma-Aldrich, Taufkirchen, DE) für 60 min bei 37°C beladen. Anschließend werden die Platten 2 x mit HBSS-Puffer gewaschen und mit HBSS-Puffer versetzt, der zusätzlich 0,1 % BSA (bovines Serumalbumin; Sigma-Aldrich, Taufkirchen, Deutschland), 5,6 mM Glucose und 0,05 % Gelatine (Merck KGaA, Darmstadt, DE) enthält. Nach einer weiteren Inkubation von 20 Minuten bei RT werden die Platten zur Ca^2+-Messung im FLIPR oder Novostar eingesetzt. Alternativ wird mit Puffer A (15 mM HEPES, 80 mM NaCl, 5 mM KCI, 1,2 mM CaCl2, 0,7 mM MgSO4, 2g/L Glucose, 2,5 mM Probenecid) gewaschen und mit Puffer A versetzt mit 2,5 µM Fluo-4 und 0,025 % Pluronic F127 (Sigma-Aldrich, Taufkirchen, DE) beladen. Danach werden die Zellen 2 x mit Puffer A gewaschen und für 30 Minuten mit Puffer A, der zusätzlich 0,05 % BSA und 0,05 % Gelatine enthält bei RT inkubiert und danach zur Ca^2+-Messung im FLIPR oder Novostar eingesetzt.
Die Ca^2+-abhängige Fluoreszenz wird dabei vor und nach Zugabe von Substanzen gemessen (λex = 488 nm, λem = 540 nm). Die Quantifizierung erfolgt durch die Messung der höchsten Fluoreszenzintensität (FC, Fluorescence Counts) über die Zeit.
Das FLIPR-Protokoll besteht aus 2 Substanzzugaben, die im FLIPR pipettiert werden. Bei Messungen im Novostar wird nur die zweite Substanzzugabe im Gerät pipettiert. Beide Geräte messen die Fluoreszenzintensität über die Zeit. Zunächst werden Testsubstanzen (10 µM) auf die Zellen pipettiert und der intrazelluläre Ca^2+-Anstieg mit der Kontrolle (hB1 R: Lys-Des-Arg^9-Bradykinin >= 50 nM; rB1 R: Des-Arg^9-Bradykinin >= 1 µM) verglichen. Daraus ergibt sich die Angabe in % Aktivierung bezogen auf das Ca^2+-Signal nach Zugabe von Lys-Des-Arg^9-Bradykinin (>= 50 nM), bzw. Des-Arg^9-Bradykinin (>=1 µM). Nach 6-20 Minuten Inkubation werden Lys-Des-Arg^9-Bradykinin (hB1 R) bzw. […]

| inhibition at 10 µM [%] | SMILES |
| --- | --- |
| 100 | COc1cc(C)c(S(=O)(=O)Cc2noc(CC(=O)N(C)C3CCN(Cc4ccnc(N5CCCC5)c4)CC3)n2)c(C)c1 [SC-57, 2-[3-[[(4-Methoxy-2,6-dimethyl-phenyl)sulfonyl]-methyl]-[1,2,4]oxadiazol-5-yl]-N-methyl-N-[1-[(2-pyrrolidin-1-yl-pyridin-4-yl)-methyl]-piperidin-4-yl]-acetamid] |
| 94 | COc1cc(C)c(S(=O)(=O)Cc2noc(C(=O)NC3CCN(c4ccc(C(F)(F)F)cn4)C3)n2)c(C)c1 (stereo not shown) [SC-06, 3-[[(4-Methoxy-2,6-dimethyl-phenyl)sulfonyl]-methyl]-N-[1-[5-(trifluormethyl)-pyridin-2-yl]-pyrrolidin-3-yl]-[1,2,4]oxadiazol-5-carbonsäure amid] |
| 100 | COc1cc(C)c(S(=O)(=O)Cc2noc(C(=O)N3CC4(CCN(c5ccncc5)CC4)C3)n2)c(C)c1 [SC-02, [3-[[(4-Methoxy-2,6-dimethyl-phenyl)sulfonyl]-methyl]-[1,2,4]oxadiazol-5-yl]-(7-pyridin-4-yl-2,7-diazaspiro[3.5]nonan-2-yl)-methanon] |
| 98 | COc1cc(C)c(S(=O)(=O)Cc2nnc(C(=O)NC3CCNCC3(C)C)o2)c(C)c1 (stereo not shown) [SC-87, N-(3,3-Dimethyl-piperidin-4-yl)-5-[[(4-methoxy-2,6-dimethyl-phenyl)sulfonyl]-methyl]-[1,3,4]oxadiazol-2-carbonsäure amid] |

The next lines start with the molecule.

| SMILES | inhibition at 10 µM [%] |
| --- | --- |
| Cc1cc(S(=O)(=O)Cc2noc(CC(=O)NC3CCC(N4CCCC4)CC3(C)C)n2)c(C)cc1Cl (stereo not shown) [CC-43, 2-[3-[[(4-Chlor-2,5-dimethyl-phenyl)sulfonyl]-methyl]-[1,2,4]oxadiazol-5-yl]-N-(2,2-dimethyl-4-pyrrolidin-1-yl-cyclohexyl)-acetamid] | 99 |
| CC(=O)N1CCC(NC(=O)Cc2nc(CS(=O)(=O)c3cccc(Cl)c3Cl)no2)C(C)(C)C1 (stereo not shown) [CC-47, N-(1-Acetyl-3,3-dimethyl-piperidin-4-yl)-2-[3-[[(2,3-dichlor-phenyl)sulfonyl]-methyl]-[1,2,4]oxa-diazol-5-yl]-acetamid] | 62 |
| COc1cc(C)c(S(=O)(=O)Cc2c(C)nn(CC(=O)NC3CCN(C(C)=O)CC3(C)C)c2C)c(C)c1 (stereo not shown) [CC-179, N-(1-Acetyl-3,3-dimethyl-piperidin-4-yl)-2-[4-[[(4-methoxy-2,6-dimethyl-phenyl)sulfonyl]-methyl]-3,5-dimethyl-1 H-pyrazol-1-yl]-acetamid] | 44 |
| COc1cc(C)c(S(=O)(=O)Cc2nc(CC(=O)NC3CCN(C)CC3(C)C)no2)c(C)c1 (stereo not shown) [CC-102, 2-[5-[[(4-Methoxy-2,6-dimethyl-phenyl)sulfonyl]-methyl]-[1,2,4]oxadiazol-3-yl]-N-(1,3,3-trimethyl-piperidin-4-yl)-acetamid] | 100 |
| Cc1cc(S(=O)(=O)Cc2noc(CC(=O)N(C)C3CCNCC3(C)C)n2)c(C)cc1Cl (stereo not shown) [CC-100, 2-[3-[[(4-Chlor-2,5-dimethyl-phenyl)sulfonyl]-methyl]-[1,2,4]oxadiazol-5-yl]-N-(3,3-dimethyl-piperidin-4-yl)-N-methyl-acetamid] | 58 |
| Cc1cccc(Cl)c1S(=O)(=O)Cc1noc(CC(=O)NC2CCNCC2)n1 [CC-90, 2-[3-[[(2-Chlor-6-methyl-phenyl)sulfonyl]-methyl]-[1,2,4]oxadiazol-5-yl]-N-piperidin-4-yl-acetamid] | 72 |
| CC1(C)CC(c2ccncc2)CCC1NC(=O)Cc1nc(CS(=O)(=O)c2cccc(Cl)c2Cl)no1 (stereo not shown) [CC-109, 2-[3-[[(2,3-Dichlor-phenyl)sulfonyl]-methyl]-[1,2,4]oxadiazol-5-yl]-N-(2,2-dimethyl-4-pyridin-4-yl-cyclohexyl)-acetamid] | 100 |
| O=C(Cc1nc(CS(=O)(=O)c2cccc(Cl)c2Cl)no1)NC1CCC(N2CCCC2)CC1 (stereo not shown) [CC-71, 2-[3-[[(2,3-Dichlor-phenyl)sulfonyl]-methyl]-[1,2,4]oxadiazol-5-yl]-N-(4-pyrrolidin-1-yl-cyclohexyl)-acetamid] | 73 |
| CC1(C)CC(N2CCCC2)CCC1NC(=O)Cc1nc(CS(=O)(=O)c2ccc(Cl)c(Cl)c2)no1 (stereo not shown) [CC-53, 2-[3-[[(3,4-Dichlorphenyl)sulfonyl]-methyl]-[1,2,4]oxadiazol-5-yl]-N-(2,2-dimethyl-4-pyrrolidin-1-yl-cyclohexyl)-acetamid] | 100 |
| COc1cc(C)c(S(=O)(=O)Cc2cn(CC(=O)NC3CCC(N4CCN(C)CC4)CC3(C)C)nn2)c(C)c1 (stereo not shown) [CC-162, N-[2,2-Dimethyl-4-(4-methyl-piperazin-1-yl)-cyclohexyl]-2-[4-[[(4-methoxy-2,6-dimethylphenyl)sulfonyl]-methyl]-1H-[1,2,3]triazol-1-yl]-acetamid] | 100 |
| COc1cc(C)c(S(=O)(=O)Cc2noc(CC(=O)N3CCN(Cc4ccc(N5CCCC5)nc4)CC3)n2)c(C)c1 [SC-62, 2-[3-[[(4-Methoxy-2,6-dimethyl-phenyl)sulfonyl]-methyl]-[1,2,4]oxadiazol-5-yl]-1-[4-[(6-pyrrolidin-1-yl-pyridin-3-yl)-methyl]-piperazin-1-yl]-ethanon] | 100 |
| COc1cc(C)c(S(=O)(=O)Cc2cn(CC(=O)NC3CCC(NC4CC4)CC3(C)C)nn2)c(C)c1 (stereo not shown) [CC-175, N-[4-(Cyclopropylamino)-2,2-dimethyl-cyclohexyl]-2-[4-[[(4-methoxy-2,6-dimethyl-phenyl)sulfonyl]-methyl]-1 H-[1,2,3]triazol-1-yl]-acetamid] | 100 |
| Cc1cc(S(=O)(=O)Cc2noc(C(=O)N3CCC(N4CCN(C)CC4)CC3)n2)c(C)cc1Cl [CC-141, [3-[[(4-Chlor-2,5-dimethyl-phenyl)sulfonyl]-methyl]-[1,2,4]oxadiazol-5-yl]-[4-(4-methyl-piperazin-1-yl)-piperidin-1-yl]-methanon] | 99 |
| COc1cc(C)c(S(=O)(=O)Cc2noc(C(=O)N3[C@@H]4CC[C@H]3CC(Oc3ccncc3)C4)n2)c(C)c1 (stereo partly drawn) [CC-149, [3-[[(4-Methoxy-2,6-dimethyl-phenyl)sulfonyl]-methyl]-[1,2,4]oxadiazol-5-yl]-[(1S,5R)-3-pyridin-4-yloxy-8-azabicyclo[3.2.1]octan-8-yl]-methanon] | 100 |
| COc1cc(C)c(S(=O)(=O)Cc2nnc(CC(=O)NC3CCNCC3)o2)c(C)c1 [CC-97, 2-[5-[[(4-Methoxy-2,6-dimethyl-phenyl)sulfonyl]-methyl]-[1,3,4]oxadiazol-2-yl]-N-piperidin-4-yl-acetamid] | 98 |
